Test results from ChEMBL document CHEMBL3352762 (J Med Chem, 2014).
Activity calls are given as the source filed them. The calls are words filed in the database; no cut-off is given here. Peptide text beside a SMILES is read from it.

How the values were obtained:
Urotensin-2 receptor [1] = biological target: T1, Urotensin-2 receptor (Homo sapiens, UniProt Q9UKP6); experiment: Displacement of [125I]urotensin-2 from human recombinant UT receptor expressed in CHO-K1 cells by scintillation counting method; format: cell-based
T1 sequence (Q9UKP6 whole entry): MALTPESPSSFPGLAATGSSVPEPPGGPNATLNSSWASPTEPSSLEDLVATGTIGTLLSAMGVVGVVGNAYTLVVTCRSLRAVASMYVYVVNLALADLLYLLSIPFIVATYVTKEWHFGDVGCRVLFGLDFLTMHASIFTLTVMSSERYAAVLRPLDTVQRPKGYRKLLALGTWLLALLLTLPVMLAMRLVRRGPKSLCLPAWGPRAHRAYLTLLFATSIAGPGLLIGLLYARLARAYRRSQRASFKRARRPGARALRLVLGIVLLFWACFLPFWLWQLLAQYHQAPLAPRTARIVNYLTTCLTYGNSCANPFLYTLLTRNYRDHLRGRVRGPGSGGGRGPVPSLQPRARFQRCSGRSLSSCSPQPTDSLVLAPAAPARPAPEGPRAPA

[2] = biological target: T2, Urotensin-2 receptor (Rattus norvegicus) (UniProt P49684); experiment: Agonist activity at UT receptor in rat aorta assessed as contraction relative to urotensin-2; format: tissue-based
T2 sequence (whole entry): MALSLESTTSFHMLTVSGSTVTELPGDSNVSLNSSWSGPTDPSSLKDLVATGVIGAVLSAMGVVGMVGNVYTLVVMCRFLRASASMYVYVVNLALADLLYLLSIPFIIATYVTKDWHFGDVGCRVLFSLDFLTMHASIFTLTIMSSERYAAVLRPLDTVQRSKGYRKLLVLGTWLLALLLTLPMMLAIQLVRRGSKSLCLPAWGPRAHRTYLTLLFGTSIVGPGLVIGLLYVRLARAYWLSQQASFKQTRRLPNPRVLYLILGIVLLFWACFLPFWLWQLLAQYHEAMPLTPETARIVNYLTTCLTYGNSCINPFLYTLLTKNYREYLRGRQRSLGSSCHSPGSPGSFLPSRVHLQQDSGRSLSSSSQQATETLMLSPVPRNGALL

Urotensin-2 receptor [3] = biological target: T3, Urotensin-2 receptor (Rattus norvegicus, UniProt P49684); experiment: (§1) Agonist activity at UT receptor in rat aorta assessed as contraction; format: tissue-based
T3 sequence (P49684 whole entry): T2 sequence (whole entry)

[4] = biological target: T2, Urotensin-2 receptor (Rattus norvegicus); experiment: Competitive antagonist activity at UT receptor in rat aorta assessed as effect on urotensin-2-induced contraction; format: tissue-based
[5] = biological target: T4, Urotensin-2 receptor (Homo sapiens) (UniProt Q9UKP6); experiment: Partial agonist activity at human recombinant UT receptor expressed in CHO-K1 cells assessed as stimulation of intracellular calcium mobilization at 10 uM by FLIPR assay relative to urotensin-2; format: functional, cell-based
T4 sequence (whole entry): T1 sequence (Q9UKP6 whole entry)

[6] = biological target: T4, Urotensin-2 receptor (Homo sapiens); experiment: Partial agonist activity at human recombinant UT receptor expressed in CHO-K1 cells assessed as stimulation of intracellular calcium mobilization at 1 uM by FLIPR assay relative to urotensin-2; format: functional, cell-based
[7] = biological target: T2, Urotensin-2 receptor (Rattus norvegicus); experiment: as §1; format: tissue-based
[8] = biological target: T4, Urotensin-2 receptor (Homo sapiens); experiment: Partial agonist activity at human recombinant UT receptor expressed in CHO-K1 cells assessed as stimulation of intracellular calcium mobilization by FLIPR assay; format: functional, cell-based
[9] = Stability in 25% fetal calf serum assessed as parent compound remaining at 80 uM at 37 degC after 16 hrs by RP-HPLC-UV based detection assay; format: ADME, Bos taurus; conditions: cattle, read-out: Stability
[10] = Stability in 25% fetal calf serum assessed as parent compound remaining at 80 uM at 37 degC after 36 hrs by RP-HPLC-UV based detection assay; format: ADME, Bos taurus; conditions: cattle, read-out: Stability

Ki (Urotensin-2 receptor [1])	Emax [2]	EC50 (Urotensin-2 receptor [3])	pKb [4]	Efficacy [5]	Efficacy [6]	pEC50 [7]	Activity [8]	remaining at 16 h, 80 µM [9]	remaining at 36 h, 80 µM [10]	SMILES
0.724 nM	13%	3.8 nM								CC(C)[C@H](NC(=O)[C@@H]1CSSC(C)(C)[C@H](NC(=O)[C@@H](N)CC(=O)O)C(=O)N[C@@H](Cc2ccccc2)C(=O)N[C@H](Cc2c[nH]c3ccccc23)C(=O)N[C@@H](CCCN)C(=O)N[C@@H](Cc2ccc3ccccc3c2)C(=O)N1)C(=O)O
6.46 nM	37%	18.2 nM								CC(C)[C@H](NC(=O)[C@@H]1CSSC(C)(C)[C@H](NC(=O)[C@@H](N)CC(=O)O)C(=O)N[C@@H](Cc2ccccc2)C(=O)N[C@H](Cc2c[nH]c3ccccc23)C(=O)N[C@@H](CCCN)C(=O)N[C@@H](Cc2cccc3ccccc23)C(=O)N1)C(=O)O
12.9 nM	57%	33.9 nM								CC(C)[C@H](NC(=O)[C@@H]1CSSC(C)(C)[C@H](NC(=O)[C@@H](N)CC(=O)O)C(=O)N[C@@H](Cc2ccccc2)C(=O)N[C@H](Cc2c[nH]c3ccccc23)C(=O)N[C@@H](CCCN)C(=O)N[C@@H](Cc2nc3ccccc3s2)C(=O)N1)C(=O)O
1.05 nM	13%	2.69 nM								CC(C)[C@H](NC(=O)[C@@H]1CSSC(C)(C)[C@H](NC(=O)[C@@H](N)CC(=O)O)C(=O)N[C@@H](Cc2ccccc2)C(=O)N[C@H](Cc2c[nH]c3ccccc23)C(=O)N[C@@H](CCCN)C(=O)N[C@@H](Cc2ccc(Cl)cc2)C(=O)N1)C(=O)O
2.24 nM	26%	12.9 nM								CC(C)[C@H](NC(=O)[C@@H]1CSSC(C)(C)[C@H](NC(=O)[C@@H](N)CC(=O)O)C(=O)N[C@@H](Cc2ccccc2)C(=O)N[C@H](Cc2c[nH]c3ccccc23)C(=O)N[C@@H](CCCN)C(=O)N[C@@H](Cc2ccc(Cl)c(Cl)c2)C(=O)N1)C(=O)O
17 nM	0%		8.12	61.2%	56.5%	inactive	Active			CC(C)[C@H](NC(=O)[C@@H]1CSSC(C)(C)[C@H](NC(=O)[C@@H](N)CC(=O)O)C(=O)N[C@@H](Cc2ccccc2)C(=O)N[C@H](Cc2c[nH]c3ccccc23)C(=O)N[C@@H](CCCN)C(=O)N[C@@H](Cc2ccc([N+](=O)[O-])cc2)C(=O)N1)C(=O)O
0.251 nM	100%	3.63 nM						< 50%		CC(C)[C@H](NC(=O)[C@@H]1CSSC[C@H](NC(=O)[C@@H](N)CC(=O)O)C(=O)N[C@@H](Cc2ccccc2)C(=O)N[C@@H](Cc2c[nH]c3ccccc23)C(=O)N[C@@H](CCCCN)C(=O)N[C@@H](Cc2ccc(O)cc2)C(=O)N1)C(=O)O (HELM PEPTIDE1{D.C.F.W.K.Y.C.V}$PEPTIDE1,PEPTIDE1,2:R3-7:R3$$$V2.0)
	0%		8.32	46.2%	43.3%	inactive	Active			CC(C)[C@H](NC(=O)[C@@H]1CSSC(C)(C)[C@@H](NC(=O)[C@@H](N)CC(=O)O)C(=O)N[C@@H](Cc2ccccc2)C(=O)N[C@H](Cc2c[nH]c3ccccc23)C(=O)N[C@@H](CCCN)C(=O)N[C@@H](Cc2ccc(O)cc2)C(=O)N1)C(=O)O (HELM PEPTIDE1{D.[CC(C)(S[*:3])[C@@H](N[*:1])C(=O)[*:2]].F.[dW].[Orn].Y.C.V}$PEPTIDE1,PEPTIDE1,2:R3-7:R3$$$V2.0)
0.2 nM	95%	0.398 nM						65%	45%	CC(C)[C@H](NC(=O)[C@@H]1CSSC(C)(C)[C@H](NC(=O)[C@@H](N)CC(=O)O)C(=O)N[C@@H](Cc2ccccc2)C(=O)N[C@@H](Cc2c[nH]c3ccccc23)C(=O)N[C@@H](CCCCN)C(=O)N[C@@H](Cc2ccc(O)cc2)C(=O)N1)C(=O)O (HELM PEPTIDE1{D.[Pen].F.W.K.Y.C.V}$PEPTIDE1,PEPTIDE1,2:R3-7:R3$$$V2.0)
2 nM	85%	0.724 nM								CC(C)[C@H](NC(=O)[C@@H]1CSSC(C)(C)[C@H](NC(=O)[C@@H](N)CC(=O)O)C(=O)N[C@@H](Cc2ccccc2)C(=O)N[C@@H](Cc2c[nH]c3ccccc23)C(=O)N[C@@H](CCCCN)C(=O)N[C@@H](Cc2ccc3ccccc3c2)C(=O)N1)C(=O)O (HELM PEPTIDE1{D.[Pen].F.W.K.[O=C([C@H](Cc1ccc2ccccc2c1)N[*:1])[*:2]].C.V}$PEPTIDE1,PEPTIDE1,2:R3-7:R3$$$V2.0)
0.776 nM	102%	0.0126 nM						> 70%	> 50%	CC(C)[C@H](NC(=O)[C@@H]1CSSC(C)(C)[C@H](NC(=O)[C@@H](N)CC(=O)O)C(=O)N[C@@H](Cc2ccccc2)C(=O)N[C@@H](Cc2c[nH]c3ccccc23)C(=O)N[C@@H](CCCCN)C(=O)N[C@@H](Cc2ccc(Cl)c(Cl)c2)C(=O)N1)C(=O)O (HELM PEPTIDE1{D.[Pen].F.W.K.[O=C([C@H](Cc1ccc(Cl)c(Cl)c1)N[*:1])[*:2]].C.V}$PEPTIDE1,PEPTIDE1,2:R3-7:R3$$$V2.0)
0.398 nM	86%	5.01 nM								CC(C)[C@H](NC(=O)[C@@H]1CSSC(C)(C)[C@H](NC(=O)[C@@H](N)CC(=O)O)C(=O)N[C@@H](Cc2ccccc2)C(=O)N[C@@H](Cc2c[nH]c3ccccc23)C(=O)N[C@@H](CCCCN)C(=O)N[C@@H](Cc2cccc3ccccc23)C(=O)N1)C(=O)O (HELM PEPTIDE1{D.[Pen].F.W.K.[O=C([C@H](Cc1cccc2ccccc12)N[*:1])[*:2]].C.V}$PEPTIDE1,PEPTIDE1,2:R3-7:R3$$$V2.0)
1.74 nM	89%	0.0195 nM								CC(C)[C@H](NC(=O)[C@@H]1CSSC(C)(C)[C@H](NC(=O)[C@@H](N)CC(=O)O)C(=O)N[C@@H](Cc2ccccc2)C(=O)N[C@@H](Cc2c[nH]c3ccccc23)C(=O)N[C@@H](CCCCN)C(=O)N[C@@H](Cc2nc3ccccc3s2)C(=O)N1)C(=O)O (HELM PEPTIDE1{D.[Pen].F.W.K.[O=C([C@H](Cc1nc2ccccc2s1)N[*:1])[*:2]].C.V}$PEPTIDE1,PEPTIDE1,2:R3-7:R3$$$V2.0)
									> 50%	CC(C)[C@H](NC(=O)[C@@H]1CSSC(C)(C)[C@H](NC(=O)[C@@H](N)CC(=O)O)C(=O)N[C@@H](Cc2ccccc2)C(=O)N[C@H](Cc2c[nH]c3ccccc23)C(=O)N[C@@H](CCCN)C(=O)N[C@@H](Cc2ccc(O)cc2)C(=O)N1)C(=O)O [URANTIDE] (HELM PEPTIDE1{D.[Pen].F.[dW].[Orn].Y.C.V}$PEPTIDE1,PEPTIDE1,2:R3-7:R3$$$V2.0)

SMILES	Ki (Urotensin-2 receptor [1])	Emax [2]	EC50 (Urotensin-2 receptor [3])	pKb [4]	Efficacy [5]	Efficacy [6]	pEC50 [7]	Activity [8]	remaining at 16 h, 80 µM [9]	remaining at 36 h, 80 µM [10]
CC(C)[C@H](NC(=O)[C@@H]1CSSC(C)(C)[C@H](NC(=O)[C@@H](N)CC(=O)O)C(=O)N[C@@H](Cc2ccccc2)C(=O)N[C@@H](Cc2c[nH]c3ccccc23)C(=O)N[C@@H](CCCCN)C(=O)N[C@@H](Cc2ccc(C#N)cc2)C(=O)N1)C(=O)O (HELM PEPTIDE1{D.[Pen].F.W.K.[N#Cc1ccc(C[C@H](N[*:1])C(=O)[*:2])cc1].C.V}$PEPTIDE1,PEPTIDE1,2:R3-7:R3$$$V2.0)	1.82 nM	79%	1.07 nM							
CC(C)[C@H](NC(=O)[C@@H]1CSSC(C)(C)[C@H](NC(=O)[C@@H](N)CC(=O)O)C(=O)N[C@@H](Cc2ccccc2)C(=O)N[C@@H](Cc2c[nH]c3ccccc23)C(=O)N[C@@H](CCCCN)C(=O)N[C@@H](Cc2ccc(Cl)cc2)C(=O)N1)C(=O)O (HELM PEPTIDE1{D.[Pen].F.W.K.[O=C([C@H](Cc1ccc(Cl)cc1)N[*:1])[*:2]].C.V}$PEPTIDE1,PEPTIDE1,2:R3-7:R3$$$V2.0)	1.23 nM	85%	0.813 nM							
CC(C)[C@H](NC(=O)[C@@H]1CSSC(C)(C)[C@H](NC(=O)[C@@H](N)CC(=O)O)C(=O)N[C@@H](Cc2ccccc2)C(=O)N[C@@H](Cc2c[nH]c3ccccc23)C(=O)N[C@@H](CCCCN)C(=O)N[C@@H](Cc2ccc([N+](=O)[O-])cc2)C(=O)N1)C(=O)O (HELM PEPTIDE1{D.[Pen].F.W.K.[O=C([C@H](Cc1ccc([N+](=O)[O-])cc1)N[*:1])[*:2]].C.V}$PEPTIDE1,PEPTIDE1,2:R3-7:R3$$$V2.0)	1.78 nM	95%	0.631 nM							
CC(C)[C@H](NC(=O)[C@@H]1CSSC[C@H](NC(=O)[C@H](CC(=O)O)NC(=O)[C@@H]2CCCN2C(=O)[C@@H](NC(=O)[C@@H](N)CCC(=O)O)[C@@H](C)O)C(=O)N[C@@H](Cc2ccccc2)C(=O)N[C@@H](Cc2c[nH]c3ccccc23)C(=O)N[C@@H](CCCCN)C(=O)N[C@@H](Cc2ccc(O)cc2)C(=O)N1)C(=O)O [UROTENSIN-II]		100%	3.16 nM							
